Source: ChEMBL document CHEMBL1152375 (Bioorg Med Chem Lett, 2009)
The source made the active and inactive calls. No cut-off for these calls is given here.

Tests used:
[1] = molecular target: T1, Hydroxycarboxylic acid receptor 3 (Homo sapiens, UniProt P49019); assay: Agonist activity at GPR109b receptor transfected in CHOK1 cells assessed as inhibition of forskolin-induced cAMP generation by HTRF assay; format: functional, cell-based, CHO-K1
[2] = molecular target: T1, Hydroxycarboxylic acid receptor 3; details: CHO-K1; 30 pM
[3] = molecular target: Hydroxycarboxylic acid receptor 2 (Homo sapiens) (UniProt Q8TDS4); assay: Agonist activity at GPR109a receptor transfected in CHOK1 cells assessed as inhibition of forskolin-induced cAMP generation at 30 pM to 100 uM by HTRF assay; format: functional, cell-based; details: CHO-K1
Hydroxycarboxylic acid receptor 2 (Homo sapiens), sequence (Q8TDS4 whole entry): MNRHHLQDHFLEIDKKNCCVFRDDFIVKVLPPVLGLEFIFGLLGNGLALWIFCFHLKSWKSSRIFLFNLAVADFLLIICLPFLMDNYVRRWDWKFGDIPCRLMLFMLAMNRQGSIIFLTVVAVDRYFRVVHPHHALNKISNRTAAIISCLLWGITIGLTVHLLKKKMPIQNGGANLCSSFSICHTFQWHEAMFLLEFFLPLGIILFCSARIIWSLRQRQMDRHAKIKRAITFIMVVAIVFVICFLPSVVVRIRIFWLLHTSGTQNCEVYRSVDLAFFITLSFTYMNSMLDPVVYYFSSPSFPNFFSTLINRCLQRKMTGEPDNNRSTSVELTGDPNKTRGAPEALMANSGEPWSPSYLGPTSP

[4] = molecular target: T1, Hydroxycarboxylic acid receptor 3; assay: Agonist activity at GPR109b receptor transfected in forskolin-stimulated CHOK1 cells assessed as cAMP generation at 10 uM by HTRF assay; format: functional, cell-based; details: CHO-K1

T1 sequence (P49019 whole entry): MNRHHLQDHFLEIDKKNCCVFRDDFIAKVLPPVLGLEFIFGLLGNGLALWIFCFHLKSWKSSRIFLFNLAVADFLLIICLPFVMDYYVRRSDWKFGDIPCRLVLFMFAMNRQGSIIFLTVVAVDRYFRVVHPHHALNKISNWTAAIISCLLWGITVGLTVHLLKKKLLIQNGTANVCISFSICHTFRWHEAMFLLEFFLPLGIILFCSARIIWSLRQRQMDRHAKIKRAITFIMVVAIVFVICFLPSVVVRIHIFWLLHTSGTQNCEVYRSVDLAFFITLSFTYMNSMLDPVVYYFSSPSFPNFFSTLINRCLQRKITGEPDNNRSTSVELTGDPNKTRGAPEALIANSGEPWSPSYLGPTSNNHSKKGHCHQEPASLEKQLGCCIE

Row | EC50 [1] [µM] | Structure (SMILES) | also measured
1 | 0.141 | O=C(O)c1cc(N(Cc2ccsc2)Cc2cccs2)[nH]n1 | –
2 | 0.0145 | O=C(O)c1cc(N(Cc2ccccc2)Cc2ccsc2)[nH]n1 | –
3 | 0.257 | O=C(O)c1cc(N(Cc2cccs2)Cc2cccs2)[nH]n1 | –
4 | 8.91 | O=C(O)c1cc(N(Cc2ccoc2)Cc2ccoc2)[nH]n1 | pEC50 [3]: inactive
5 | 0.851 | O=C(O)c1cc(N(Cc2ccccc2)Cc2ccccc2)[nH]n1 | –
6 | 0.00316 | O=C(O)c1cc(N(Cc2ccsc2)Cc2ccsc2)[nH]n1 | –
7 | > 10 | O=C(O)c1cc(N(Cc2ccc(F)cc2)Cc2ccc(F)cc2)[nH]n1 | pEC50 [3]: inactive
8 | > 10 | O=C(O)c1cc(N(Cc2cccc(F)c2)Cc2cccc(F)c2)[nH]n1 | –
9 | > 10 | O=C(O)c1cc(N(Cc2ccsc2)Cc2ccco2)[nH]n1 | –
10 | 8.71 | O=C(O)c1cc(N(Cc2ccccc2F)Cc2ccccc2F)[nH]n1 | pEC50 [3]: inactive

The remaining lines, values behind:

Row | Structure (SMILES) | EC50 [1] [µM] | also measured
11 | CC(C)CCN(CCC(C)C)c1cc(C(=O)O)n[nH]1 | > 10 | –
12 | Cc1ccc(CN(Cc2ccc(C)s2)c2cc(C(=O)O)n[nH]2)s1 | – | pEC50 [2]: inactive
13 | CCCCCCN(CCCCCC)c1cc(C(=O)O)n[nH]1 | > 10 | –
14 | O=C(O)c1cc(N(CCc2ccccc2)CCc2ccccc2)[nH]n1 | 5.62 | –
15 | CCC(C)Nc1cc(C(=O)O)n[nH]1 (stereo unspecified) | 4.47 | pEC50 [3]: inactive
16 | O=C(O)c1cc(N(Cc2ccoc2)Cc2ccsc2)[nH]n1 | – | pEC50 [2]: inactive
17 | CCCN(CCC)c1cc(C(=O)O)n[nH]1 | 8.32 | –
18 | O=C(O)c1cc(N(Cc2ccc(Br)s2)Cc2ccc(Br)s2)[nH]n1 | – | pEC50 [2]: inactive
19 | O=C(O)c1cc(NCc2ccccc2)[nH]n1 | – | pEC50 [2]: inactive
20 | O=C(O)c1cc(N(CC2CCCCC2)CC2CCCCC2)[nH]n1 | – | pEC50 [2]: inactive
21 | O=C(O)c1cc(N(Cc2ccc(F)cc2)Cc2ccsc2)[nH]n1 | – | pEC50 [2]: inactive
22 | O=C(O)c1cc(N(CC2CC2)CC2CC2)[nH]n1 | 3.98 | pEC50 [3]: inactive
23 | CCCC(C)Nc1cc(C(=O)O)n[nH]1 (stereo unspecified) | 6.76 | pEC50 [3]: inactive
24 | C=CCNc1ccc(C(=O)O)cn1 | 0.0417 | Activity [4]: 200%
